SMILES strings stand for the structures.

Data on seven compounds can be found in patent US8030354B2, “Substituted biphenyl GPR40 modulators” (Amgen Inc., priority 2007, dated 2011).

Sequence of GPR40 (O14842 whole entry): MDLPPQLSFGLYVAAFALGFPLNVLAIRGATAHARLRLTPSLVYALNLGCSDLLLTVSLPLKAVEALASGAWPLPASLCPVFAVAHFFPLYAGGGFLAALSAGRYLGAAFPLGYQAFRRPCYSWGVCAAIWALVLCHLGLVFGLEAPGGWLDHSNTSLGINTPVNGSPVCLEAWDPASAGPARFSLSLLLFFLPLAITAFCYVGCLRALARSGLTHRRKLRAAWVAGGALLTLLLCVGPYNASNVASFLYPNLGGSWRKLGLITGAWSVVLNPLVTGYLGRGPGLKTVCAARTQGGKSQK

This test addresses GPR40 (Homo sapiens, UniProt O14842). As to the kind of experiment: Cell-based aequorin assay (CHO cells stably expressing GPR40 and aequorin). Details: expressed in transfected cells; host or cells: CHO cells stably transfected with GPR40 and aequorin. The following applies: activation of human GPR40, CHO cells, 0.01% HSA. The procedure, abridged: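 CHO cells stably co-expressing GPR40 and aequorin, loaded with coelenterazine (1 ug/mL, 2 h, room temperature) in H/HBSS with 20 mM Hepes and 0.01% fatty acid-free HSA. Serially diluted compounds added; luminescence recorded over 20 s. EC50 from dose-response of maximum relative light units.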
Consider `COc1ccc(F)c(-c2ccc(COc3cccc([C@@H](CC(=O)O)CC4CC4)c3)cc2[C@@H]2OCCC2(C)C)c1` (single isomer, unassigned) [Example 69.43], for which the concentration giving a half-maximal response (EC50) is 1000 to 10000 nM.
Under `COc1ccc(F)c(-c2ccc(COc3cccc(C(CC(=O)O)CC4CC4)c3)cc2COCC=C(C)C)c1` (single isomer, unassigned) [Example 69.45, (3R)-4-Cyclopropyl-3-(3-(((2′-fluoro-2-(((3-methyl-2-butenyl)oxy)methyl)-5′-(methyloxy)-1,1′-biphenyl-4-yl)methyl)oxy)phenyl)butanoic acid or (3S)-4-cyclopropyl-3-(3-(((2′-fluoro-2-(((3-methyl-2-butenyl)oxy)methyl)-5′-(methyloxy)-1,1′-biphenyl-4-yl)methyl)oxy)phenyl)butanoic acid] stands 1000 to 10000 nM; under `COc1ccc(F)c(-c2ccc(COc3cccc(C(CC(=O)O)CC4CC4)c3)cc2CN2CCCC2)c1` (single isomer, unassigned) [Example 69.46, (3R)-4-Cyclopropyl-3-(3-(((2′-fluoro-5′-(methyloxy)-2-(1-pyrrolidinylmethyl)-1,1′-biphenyl-4-yl)methyl)oxy)phenyl)butanoic acid or (3S)-4-cyclopropyl-3-(3-(((2′-fluoro-5′-(methyloxy)-2-(1-pyrrolidinylmethyl)-1,1′-biphenyl-4-yl)methyl)oxy)phenyl)butanoic acid], 1000 to 10000 nM; under `COc1ccc(F)c(-c2ccc(COc3cccc(C(CC(=O)O)CC4CC4)c3)cc2CN2[C@H](C)CC[C@H]2C)c1` (single isomer, unassigned) [Example 69.47, (3R)-4-Cyclopropyl-3-(3-(((2-(((2R,5R)-2,5-dimethyl-1-pyrrolidinyl)methyl)-2′-fluoro-5′-(methyloxy)-1,1′-biphenyl-4-yl)methyl)oxy)phenyl)butanoic acid or (3S)-4-cyclopropyl-3-(3-(((2-(((2R,5R)-2,5-dimethyl-1-pyrrolidinyl)methyl)-2′-fluoro-5′-(methyloxy)-1,1′-biphenyl-4-yl)methyl)oxy)phenyl)butanoic acid], 100 to 1000 nM.
Compound `COc1ccc(F)c(-c2ccc(COc3cccc(C(CC(=O)O)CC4CC4)c3)cc2CN2CCCCCC2)c1` (single isomer, unassigned) [Example 69.48, (3R)-3-(3-(((2-(1-Azepanylmethyl)-2′-fluoro-5′-(methyloxy)-1,1′-biphenyl-4-yl)methyl)oxy)phenyl)-4-cyclopropylbutanoic acid or (3S)-3-(3-(((2-(1-azepanylmethyl)-2′-fluoro-5′-(methyloxy)-1,1′-biphenyl-4-yl)methyl)oxy)phenyl)-4-cyclopropylbutanoic acid] returned an EC50 of 1000 to 10000 nM.
Under `CCCCC(CC(=O)O)c1cccc(OCc2ccc(-c3cc(OC)ccc3F)c(C(C)(C)C)c2)c1` (single isomer, unassigned) [Example 71.1, (3R)-3-(3-(((2-(1,1-Dimethylethyl)-2′-fluoro-5′-(methyloxy)-1,1′-biphenyl-4-yl)methyl)oxy)phenyl)heptanoic acid or (3S-3-(3-(((2-(1,1-dimethylethyl)-2′-fluoro-5′-(methyloxy)-1,1′-biphenyl-4-yl)methyl)oxy)phenyl)heptanoic acid] stands 100 to 1000 nM; under `COC[C@H](CC(=O)O)c1cccc(OCc2ccc(-c3cc(OC)ccc3F)c(C3=CCCC3(C)C)c2)c1` (single isomer, unassigned) [Example 74, (3R)-3-(3-(((2-(5,5-Dimethyl-1-cyclopenten-1-yl)-2′-fluoro-5′-(methyloxy)-1,1′-biphenyl-4-yl)methyl)oxy)phenyl)-4-(methyloxy)butanoic acid or (3S)-3-(3-(((2-(5,5-dimethyl-1-cyclopenten-1-yl)-2′-fluoro-5′-(methyloxy)-1,1′-biphenyl-4-yl)methyl)oxy)phenyl)-4-(methyloxy)butanoic acid], 1000 to 10000 nM.

A word on the EC50: it is the concentration giving half of the maximal effect. High values mean lower potency in that assay, low ones higher potency in that assay.
